The supplement of paper PMC10307832

Key:
Experiment in all cases: relative viability (nuclei count vs DMSO), 5 days (fraction); higher = more cells survive
Pictilisib + Luminespib = compound: CS(=O)(=O)N1CCN(Cc2cc3nc(-c4cccc5[nH]ncc45)nc(N4CCOCC4)c3s2)CC1 [Pictilisib] + CCNC(=O)c1noc(-c2cc(C(C)C)c(O)cc2O)c1-c1ccc(CN2CCOCC2)cc1 [Luminespib] (partner 0.01 µM)
Outline: (§1)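 Lung cancer cell lines in 1536-well plates were dosed by pin tool the day after seeding, either with one drug alone or with a fixed anchor-drug dose plus five library-drug doses (not always all listed) in √10 steps. After 5 days, cells were fixed and their nuclei stained in one step (final 0.05% Triton X-100, 1% formaldehyde, 1 ug/ml Hoechst), then counted on 4× images. Relative viability is the nuclei count in treated wells divided by that in vehicle wells. Values are medians of duplicate plates.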

Pictilisib + OSI-027 = compound: CS(=O)(=O)N1CCN(Cc2cc3nc(-c4cccc5[nH]ncc45)nc(N4CCOCC4)c3s2)CC1 [Pictilisib] + COc1cccc2cc(-c3nc([C@H]4CC[C@H](C(=O)O)CC4)n4ncnc(N)c34)[nH]c12 [OSI-027] (partner 0.5 µM)
Outline: as §1

MK-2206 = compound: NC1(c2ccc(-c3nc4ccn5c(=O)[nH]nc5c4cc3-c3ccccc3)cc2)CCC1 [MK-2206]
Outline: (§2)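 Only plates meeting two conditions passed: control CV below 25% and at least one doubling. Lung cancer cell lines, kept overnight at 37 °C in 1536-well plates, were pinned with five library-drug doses (not always all listed) √10 apart on vehicle-anchored plates and grown 5 days without medium change. A one-step fix, permeabilisation and Hoechst stain preceded 4× imaging and MetaXpress nuclear counting. Viability equals treated-well nuclei divided by vehicle-well nuclei, as the median over plates.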

Pictilisib = compound: CS(=O)(=O)N1CCN(Cc2cc3nc(-c4cccc5[nH]ncc45)nc(N4CCOCC4)c3s2)CC1 [Pictilisib]
Outline: as §2

Cell Line	relative viability (Pictilisib + Luminespib; first compound 0.02 µM)	relative viability (Pictilisib + Luminespib; first compound 0.06325 µM)	relative viability (Pictilisib + Luminespib; first compound 0.6325 µM)	relative viability (Pictilisib + Luminespib; first compound 2 µM)	relative viability (Pictilisib + OSI-027; first compound 0.02 µM)	relative viability (Pictilisib + OSI-027; first compound 0.06325 µM)	relative viability (Pictilisib + OSI-027; first compound 0.6325 µM)	relative viability (Pictilisib + OSI-027; first compound 2 µM)	relative viability (MK-2206; 0.01 µM)	relative viability (MK-2206; 0.03162 µM)	relative viability (MK-2206; 0.3162 µM)	relative viability (MK-2206; 1 µM)	relative viability (Pictilisib; 0.02 µM)	relative viability (Pictilisib; 0.06325 µM)	relative viability (Pictilisib; 0.6325 µM)	relative viability (Pictilisib; 2 µM)	relative viability (Pictilisib; 1 µM, anchor plate)
NCI-H522	1.01	0.939	0.894	0.788	0.635	0.719	0.64	0.57	0.916	1.01	0.885	0.696	1	1.05	0.768	0.648	
NCI-H1623	0.452	0.455	0.379	0.303	0.431	0.414	0.342	0.244	0.957	1.07	0.946	0.914	0.962	0.94	0.664	0.341	
NCI-H2228	0.12	0.184	0.129	0.121	0.587	0.431	0.283	0.155	0.871	0.845	0.658	0.517	0.962	0.998	0.742	0.361	0.413
LK-2	0.198	0.144	0.152	0.188	0.183	0.208	0.15	0.142	0.944	1.09	1.05	0.911	0.938	0.926	0.656	0.415	0.598
PC-3 [JPC-3]	0.604	0.775	0.509	0.462	0.591	0.718	0.621	0.433	1.02	1.04	1.11	1.07	1.06	1.13	1.1	0.856	0.735
NCI-H596	0.942	0.92	0.442	0.153	0.719	0.729	0.353	0.296	1.07	0.929	0.948	0.669	0.98	0.957	0.684	0.373	0.405
NCI-H460	0.0289	0.0281	0.0266	0.019	0.612	0.576	0.212	0.0454	0.997	1.03	1.02	0.921	0.993	1.02	0.933	0.353	0.381
NCI-H647	0.124	0.151	0.265	0.185	0.598	0.709	0.403	0.182	0.951	1.11	0.921	0.744	1.09	1.03	0.78	0.471	0.476
NCI-H838	0.332	0.262	0.241	0.258	0.328	0.308	0.242	0.189	0.98	1.01	0.918	0.92	1.01	0.902	0.722	0.426	0.455
PC-14	0.162	0.151	0.141	0.123	1.02	1	0.557	0.266	0.937	1.02	0.991	1	1.1	1.14	0.994	0.703	0.672
NCI-H358	0.382	0.348	0.161	0.146	0.684	0.664	0.357	0.127	1.01	0.977	0.972	0.871	0.983	0.884	0.786	0.355	0.356
NCI-H1915	0.784	0.864	0.699	0.642	0.618	0.616	0.639	0.533	1	1.06	0.967	0.95	1.06	1.04	0.95	0.909	0.96
201T	1.04	1	0.869	0.576	0.757	0.683	0.503	0.281	0.987	1.03	0.982	0.995	0.97	0.964	0.921	0.64	0.702
NCI-H1437	1.14	1.16	1.25	1.19	0.855	0.685	0.619	0.289	0.993	0.963	1.07	0.925	1.03	1.06	0.902	0.528	0.482
A-427	0.864	0.97	0.855	0.724	0.492	0.405	0.393	0.351	1.04	1.06	0.981	0.974	1.1	1.07	0.921	0.74	0.698
BEN	0.54	0.269	0.275	0.438	0.309	0.293	0.286	0.273	0.97	1.08	1.07	0.836	1	1.01	0.951	0.75	0.57
NCI-H2347	0.444	0.518	0.423	0.264	0.458	0.213	0.286	0.217	0.952	0.997	0.997	0.945	1.02	1.05	0.934	0.708	0.644
LCLC-103H	0.989	0.903	0.606	0.438	0.494	0.438	0.287	0.262	0.923	0.984	0.982	1.11	1.05	0.984	0.707	0.663	0.625
NCI-H650	0.759	0.809	0.802	0.483	0.563	0.555	0.425	0.321	0.986	0.854	0.97	0.764	1.03	0.958	0.848	0.687	0.865
